Measured values as given in patent US10780082B2, “Macrocycle and composition comprising thereof” (Shenzhen TargetRx, Inc., priority 2016, dated 2020).

Tested on: BaF3-NPM-ALK cells
Assay: Cytotoxicity experiment, ALK WT cells
Type: cell-based, murine
Details: two days incubation
Description: The cell line that can be used in the assay is Ba/F3, a murine pro-B cell line that has been stably transfected with the expression vector pClneo™ (Promega Corp., Madison Wis.) encoding NPM-ALK and subsequently G418-resistent cells were selected. The inhibitory activity of the compounds of Formula I can be determined as follows: BaF3-NPM-ALK cells (15000/well in a microtiter plate) were transferred to a 96-well microtiter plate. Test compounds (dissolved in DMSO) were then added in a series of concentrations (serial dilutions) with a final concentration of DMSO not exceeding 1% (v/v). […] The cell lysis was completed at room temperature within 60 minutes and the amount of Yopro bound to the DNA was determined by measurement using, for example, a CytoFluor II 96-well reader (PerSeptive Biosystems). IC50 can be determined by computer aided system using the following formula: IC50=[(ABS test−ABS start)/(ABS control−ABS start)]×100 wherein ABS was absorption.

SMILES | IC50
CC1Oc2cc(cnc2N)-c2c(nn(C)c2C#N)CN(C)C(=O)c2ccc(F)cc21 (racemic) [Compound 28] | < 1 nM
CC1Oc2cc(cnc2N)-c2c(nn(C)c2C#N)CN(C)C(=O)c2ccc(F)cc21 (racemic) [Compound 45] | < 1 nM
CC1Oc2cc(cnc2N)-c2c(nn(C)c2C#N)CN(C)C(=O)c2ccc(F)cc21 (racemic) [Compound 58] | < 1 nM
CC1Oc2cc(cnc2N)-c2c(nn(C)c2C#N)CN(C)C(=O)c2ccc(F)cc21 (racemic) [Compound 72] | < 1 nM
CC1Oc2cc(cnc2N)-c2c(nn(C)c2C#N)CN(C)C(=O)c2ccc(F)cc21 (racemic) [Compound 76] | < 1 nM
CC1Oc2cc(cnc2N)-c2c(nn(C)c2C#N)CN(C)C(=O)c2ccc(F)cc21 (single isomer, unassigned) [Compound 18] | < 1 nM
C[C@H]1Oc2cc(cnc2N)-c2c(nn(C)c2C#N)CN(C)C(=O)c2ccc(F)cc21 [PF-06463922, reference compound] | < 1 nM
